Assay results reported in ChEMBL document CHEMBL1146889, “Homo-cysteinyl peptide inhibitors of the L1 metallo-beta-lactamase, and SAR as determined by combinatorial library synthesis” (Bioorg Med Chem Lett, 2006).

Each molecule was assayed against Beta-lactamase L1 (Stenotrophomonas maltophilia, UniProt P52700) (assay: Inhibition of Stenotrophomonas maltophilia L1 metallo beta lactamase).
Chain of Beta-lactamase L1 (P52700 whole entry): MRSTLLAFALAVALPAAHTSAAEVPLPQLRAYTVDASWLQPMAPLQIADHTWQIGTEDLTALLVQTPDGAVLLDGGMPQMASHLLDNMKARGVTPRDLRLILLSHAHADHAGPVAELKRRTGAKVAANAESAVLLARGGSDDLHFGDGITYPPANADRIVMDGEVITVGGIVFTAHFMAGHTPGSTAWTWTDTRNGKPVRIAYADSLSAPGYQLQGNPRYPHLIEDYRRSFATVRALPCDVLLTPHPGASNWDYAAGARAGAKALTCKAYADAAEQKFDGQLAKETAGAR

Structure (SMILES)	Ki [nM]
CC(=O)Nc1ccc(CC(=O)NC(CCS)C(=O)N[C@H](Cc2ccccc2)C(=O)O)cc1[N+](=O)[O-] (stereo not given in full)	390
NC(=O)[C@@H](Cc1ccccc1)NC(=O)C(CCS)NC(=O)c1cc(O)cc(C(=O)O)c1 (single isomer, unassigned; diastereomer 1)	2.1
O=C(O)c1cc(O)cc(C(=O)NC(CCS)C(=O)N[C@H](Cc2ccccc2)C(=O)O)c1 (stereo in doubt; 96)	140
O=C(Cc1ccc(Br)cc1)NC(CS)C(=O)N[C@H](Cc1ccccc1)C(=O)O (stereo not given in full)	3670
O=C(NC(CCS)C(=O)N[C@H](Cc1ccccc1)C(=O)O)c1cc2cccc([N+](=O)[O-])c2[nH]1 (stereo not given in full)	150
Cc1cc(C(=O)NC(CCS)C(=O)N[C@H](Cc2ccccc2)C(=O)O)cc(C)c1OCc1ccccc1 (stereo not given in full)	200
CCCCc1ccc(C(=O)NC(CS)C(=O)N[C@H](Cc2ccccc2)C(=O)O)nc1 (stereo not given in full)	880
O=C(NC(CCS)C(=O)N[C@H](Cc1ccccc1)C(=O)O)c1cc2cc(Cl)ccc2[nH]1 (stereo not given in full)	200
CCCCc1ccc(C(=O)NC(CCS)C(=O)N[C@H](Cc2ccccc2)C(=O)O)nc1 (stereo in doubt; 91) [listing 1 of 2 here]	230
O=C(NC(CCS)C(=O)N[C@H](Cc1ccccc1)C(=O)O)c1ccc(-c2ccccc2[N+](=O)[O-])o1 (stereo not given in full)	160
O=C(COc1cccc2ccccc12)NC(CCS)C(=O)N[C@H](Cc1ccccc1)C(=O)O (stereo not given in full)	290
O=C(O)c1cc(O)cc(C(=O)NC(CCS)C(=O)N[C@H](Cc2ccccc2)C(=O)O)c1 (stereo in doubt; 49) [listing 1 of 2 here]	140
NC(=O)[C@@H](Cc1ccccc1)NC(=O)C(CCS)NC(=O)c1cc(O)cc(C(=O)O)c1 (single isomer, unassigned)	130
O=C(NC(CCS)C(=O)N[C@H](Cc1ccccc1)C(=O)O)c1c[nH]c(=O)c(Cl)c1 (stereo not given in full)	260
NC(=O)[C@@H](Cc1ccccc1)NC(=O)C(CCS)NC(=O)c1cccc(C(=O)O)n1 (stereo not given in full)	26
CCCCc1ccc(C(=O)NC(CCS)C(=O)N[C@H](Cc2ccccc2)C(=O)O)nc1 (stereo in doubt; 6)	230
NC(=O)[C@@H](Cc1ccccc1)NC(=O)C(CCS)NC(=O)c1cc(O)cc(C(=O)O)c1 (stereo in doubt; 95)	5.8

Continued, values first:

Ki [nM]	Structure (SMILES)
120	O=C(O)c1cccc(C(=O)NC(CCS)C(=O)N[C@H](Cc2ccccc2)C(=O)O)n1 (stereo in doubt; 94)
12	O=C(O)c1cccc(C(=O)NC(CCS)C(=O)N[C@H](Cc2ccccc2)C(=O)O)n1 (stereo in doubt; 84) [listing 1 of 2 here]

The molecules below were run against Beta-lactamase L1 (Stenotrophomonas maltophilia) (UniProt P52700) (assay: Inhibition of Stenotrophomonas maltophilia L1 metallo beta lactamase at 200 uM).
Chain of Beta-lactamase L1 (Stenotrophomonas maltophilia) (P52700 34-290 limits assumed): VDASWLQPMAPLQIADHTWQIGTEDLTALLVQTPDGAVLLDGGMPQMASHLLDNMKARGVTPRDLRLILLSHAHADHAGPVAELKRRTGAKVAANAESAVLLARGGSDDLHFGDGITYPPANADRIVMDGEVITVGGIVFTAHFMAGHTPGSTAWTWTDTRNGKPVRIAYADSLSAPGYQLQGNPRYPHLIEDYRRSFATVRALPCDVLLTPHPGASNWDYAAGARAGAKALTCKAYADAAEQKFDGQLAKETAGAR

Structure (SMILES)	inhibition [%]
CC(=O)Nc1ccc(CC(=O)NC(CCS)C(=O)N[C@H](Cc2ccccc2)C(=O)O)cc1[N+](=O)[O-] (stereo not given in full)	81
O=C(NC(CCS)C(=O)N[C@H](Cc1ccccc1)C(=O)O)c1ccc([N+](=O)[O-])c(O)c1 (stereo not given in full)	61
O=C(CO)NC(CCS)C(=O)N[C@H](Cc1ccccc1)C(=O)O (stereo not given in full)	41
CC(C)CC(=O)NC(CCS)C(=O)N[C@H](Cc1ccccc1)C(=O)O (stereo not given in full)	21
O=C(O)c1cc(O)cc(C(=O)NC(CCS)C(=O)N[C@H](Cc2ccccc2)C(=O)O)c1 (stereo in doubt; 49) [listing 2 of 2 here]	81
O=C(NC(CCS)C(=O)N[C@H](Cc1ccccc1)C(=O)O)c1cc2ccccc2s1 (stereo not given in full)	61
CCCCCCCC(=O)NC(CCS)C(=O)N[C@H](Cc1ccccc1)C(=O)O (stereo not given in full)	41
CO/N=C(/C(=O)NC(CCS)C(=O)N[C@H](Cc1ccccc1)C(=O)O)c1csc(NC=O)n1 (stereo not given in full)	41
O=C(NC(CCS)C(=O)N[C@H](Cc1ccccc1)C(=O)O)c1ccccc1-c1ccccc1 (stereo not given in full)	41
O=C(NC(CCS)C(=O)N[C@H](Cc1ccccc1)C(=O)O)c1cc2cccc([N+](=O)[O-])c2[nH]1 (stereo not given in full)	81
Cc1nocc1C(=O)NC(CCS)C(=O)N[C@H](Cc1ccccc1)C(=O)O (stereo not given in full)	61
Cc1cc(C(=O)NC(CCS)C(=O)N[C@H](Cc2ccccc2)C(=O)O)cc(C)c1OCc1ccccc1 (stereo not given in full)	81
C=C(C(=O)NC(CCS)C(=O)N[C@H](Cc1ccccc1)C(=O)O)C(F)(F)F (stereo not given in full)	61
O=C(Cc1c[nH]c2ccccc12)NC(CCS)C(=O)N[C@H](Cc1ccccc1)C(=O)O (stereo not given in full)	61
O=C(NC(CCS)C(=O)N[C@H](Cc1ccccc1)C(=O)O)c1cc2cc(Cl)ccc2[nH]1 (stereo not given in full)	81
O=C(NC(CCS)C(=O)N[C@H](Cc1ccccc1)C(=O)O)c1ccc(-c2ccccc2[N+](=O)[O-])o1 (stereo not given in full)	81
O=C(COc1cccc2ccccc12)NC(CCS)C(=O)N[C@H](Cc1ccccc1)C(=O)O (stereo not given in full)	81
Cc1ccc(C(=O)NC(CCS)C(=O)N[C@H](Cc2ccccc2)C(=O)O)c(Cl)n1 (stereo not given in full)	61
O=C(Cc1ccccc1)NC(CCS)C(=O)N[C@H](Cc1ccccc1)C(=O)O (stereo not given in full)	61
Cc1ccc(C(=O)NC(CCS)C(=O)N[C@H](Cc2ccccc2)C(=O)O)c(O)n1 (stereo not given in full)	61
Cc1cn(C)c(CC(=O)NC(CCS)C(=O)N[C@H](Cc2ccccc2)C(=O)O)c1C(=O)O (stereo not given in full)	41
Nc1nc(CC(=O)NC(CCS)C(=O)N[C@H](Cc2ccccc2)C(=O)O)cs1 (stereo not given in full)	41
O=C(NC(CCS)C(=O)N[C@H](Cc1ccccc1)C(=O)O)C1CCCC1 (stereo not given in full)	61
O=C(N[C@H](Cc1ccccc1)C(=O)O)C(CCS)NC(=O)C12CC3CC(CC(C3)C1)C2 (stereo not given in full)	61
O=C(NC(CCS)C(=O)N[C@H](Cc1ccccc1)C(=O)O)C1CCC1 (stereo not given in full)	0

Structure (SMILES)	inhibition [%]
O=C(CC(c1ccccc1)c1ccccc1)NC(CCS)C(=O)N[C@H](Cc1ccccc1)C(=O)O (stereo not given in full)	41
O=C(CC12CC3CC(CC(C3)C1)C2)NC(CCS)C(=O)N[C@H](Cc1ccccc1)C(=O)O (stereo not given in full)	61
O=C(NC(CCS)C(=O)N[C@H](Cc1ccccc1)C(=O)O)c1ccccc1C(=O)c1ccccc1 (stereo not given in full)	41
C=C(C)C(=O)NC(CCS)C(=O)N[C@H](Cc1ccccc1)C(=O)O (stereo not given in full)	61
C=CCCC(=O)NC(CCS)C(=O)N[C@H](Cc1ccccc1)C(=O)O (stereo not given in full)	41
CCCC(=O)NC(CCS)C(=O)N[C@H](Cc1ccccc1)C(=O)O (stereo not given in full)	41
O=C(/C=C\c1ccco1)NC(CCS)C(=O)N[C@H](Cc1ccccc1)C(=O)O (stereo not given in full)	21
O=C(CC(O)C(=O)O)NC(CCS)C(=O)N[C@H](Cc1ccccc1)C(=O)O (stereo not given in full)	41
O=C(Cc1cccs1)NC(CCS)C(=O)N[C@H](Cc1ccccc1)C(=O)O (stereo not given in full)	41
O=C(Cc1ccsc1)NC(CCS)C(=O)N[C@H](Cc1ccccc1)C(=O)O (stereo not given in full)	41
O=C(NC(CCS)C(=O)N[C@H](Cc1ccccc1)C(=O)O)C1CCCCC1 (stereo not given in full)	61
CC(C)C(=O)NC(CCS)C(=O)N[C@H](Cc1ccccc1)C(=O)O (stereo not given in full)	41
CC(=O)CCC(=O)NC(CCS)C(=O)N[C@H](Cc1ccccc1)C(=O)O (stereo not given in full)	41
O=C(Cc1cccc2ccccc12)NC(CCS)C(=O)N[C@H](Cc1ccccc1)C(=O)O (stereo not given in full)	61
O=C(/C=C\c1c[nH]c2ccccc12)NC(CCS)C(=O)N[C@H](Cc1ccccc1)C(=O)O (stereo not given in full)	21
C/C=C\C=C\C(=O)NC(CCS)C(=O)N[C@H](Cc1ccccc1)C(=O)O (stereo not given in full)	41
O=C(Cc1c[nH]cn1)NC(CCS)C(=O)N[C@H](Cc1ccccc1)C(=O)O (stereo not given in full)	41
O=C(O)CCCCC(=O)NC(CCS)C(=O)N[C@H](Cc1ccccc1)C(=O)O (stereo not given in full)	41
NC(=O)CCC(=O)NC(CCS)C(=O)N[C@H](Cc1ccccc1)C(=O)O (stereo not given in full)	41
CCCCc1ccc(C(=O)NC(CCS)C(=O)N[C@H](Cc2ccccc2)C(=O)O)nc1 (stereo in doubt; 91) [listing 2 of 2 here]	81
O=C(O)CCC(=O)NC(CCS)C(=O)N[C@H](Cc1ccccc1)C(=O)O (stereo not given in full)	41
CC(=O)Oc1ccccc1C(=O)NC(CCS)C(=O)N[C@H](Cc1ccccc1)C(=O)O (stereo not given in full)	41
O=C(N[C@H](Cc1ccccc1)C(=O)O)C(CCS)NC(=O)C(c1ccccc1)c1ccccc1 (stereo not given in full)	61
O=C(COc1ccccc1)NC(CCS)C(=O)N[C@H](Cc1ccccc1)C(=O)O (stereo not given in full)	61

Continued, values first:

inhibition [%]	Structure (SMILES)
61	O=C(NC(CCS)C(=O)N[C@H](Cc1ccccc1)C(=O)O)c1ccc2[nH]ccc2c1 (stereo not given in full)
61	O=C(NC(CCS)C(=O)N[C@H](Cc1ccccc1)C(=O)O)c1cnccn1 (stereo not given in full)
41	O=C(NC(CCS)C(=O)N[C@H](Cc1ccccc1)C(=O)O)c1cccc(O)c1 (stereo not given in full)
41	O=C(NC(CCS)C(=O)N[C@H](Cc1ccccc1)C(=O)O)c1ccsc1 (stereo not given in full)
81	O=C(O)c1cccc(C(=O)NC(CCS)C(=O)N[C@H](Cc2ccccc2)C(=O)O)n1 (stereo in doubt; 84) [listing 2 of 2 here]
41	O=C(NC(CCS)C(=O)N[C@H](Cc1ccccc1)C(=O)O)c1ccoc1 (stereo not given in full)
41	O=C(NC(CCS)C(=O)N[C@H](Cc1ccccc1)C(=O)O)c1cc[nH]c1 (stereo not given in full)
61	Cc1ccsc1C(=O)NC(CCS)C(=O)N[C@H](Cc1ccccc1)C(=O)O (stereo not given in full)
41	O=C(NC(CCS)C(=O)N[C@H](Cc1ccccc1)C(=O)O)c1cccs1 (stereo not given in full)
41	Cn1cccc1C(=O)NC(CCS)C(=O)N[C@H](Cc1ccccc1)C(=O)O (stereo not given in full)
41	Cc1ccc(C(=O)NC(CCS)C(=O)N[C@H](Cc2ccccc2)C(=O)O)s1 (stereo not given in full)
41	Cc1occc1C(=O)NC(CCS)C(=O)N[C@H](Cc1ccccc1)C(=O)O (stereo not given in full)
41	O=C(NC(CCS)C(=O)N[C@H](Cc1ccccc1)C(=O)O)c1ccccc1O (stereo not given in full)
41	O=C(O)c1cccnc1C(=O)NC(CCS)C(=O)N[C@H](Cc1ccccc1)C(=O)O (stereo not given in full)
61	CC(=O)Nc1cccc(C(=O)NC(CCS)C(=O)N[C@H](Cc2ccccc2)C(=O)O)c1 (stereo not given in full)
61	O=C(O)c1ccc(C(=O)NC(CCS)C(=O)N[C@H](Cc2ccccc2)C(=O)O)cc1 (stereo not given in full)
41	O=C(NC(CCS)C(=O)N[C@H](Cc1ccccc1)C(=O)O)c1ccco1 (stereo not given in full)
81	O=C(NC(CCS)C(=O)N[C@H](Cc1ccccc1)C(=O)O)c1cnc(O)c(Cl)c1 (stereo not given in full)
41	O=C(NC(CCS)C(=O)N[C@H](Cc1ccccc1)C(=O)O)c1ccc2cc[nH]c2c1 (stereo not given in full)
41	O=C(NC(CCS)C(=O)N[C@H](Cc1ccccc1)C(=O)O)c1ccc([N+](=O)[O-])cc1 (stereo not given in full)
61	O=C(NC(CCS)C(=O)N[C@H](Cc1ccccc1)C(=O)O)c1cccnc1 (stereo not given in full)
61	C=Cc1ccc(C(=O)NC(CCS)C(=O)N[C@H](Cc2ccccc2)C(=O)O)cc1 (stereo not given in full)
61	Cc1ccccc1C(=O)NC(CCS)C(=O)N[C@H](Cc1ccccc1)C(=O)O (stereo not given in full)
61	O=C(NC(CCS)C(=O)N[C@H](Cc1ccccc1)C(=O)O)c1ccno1 (stereo not given in full)
61	O=C(NC(CCS)C(=O)N[C@H](Cc1ccccc1)C(=O)O)c1cccnc1S (stereo not given in full)
61	O=C(NC(CCS)C(=O)N[C@H](Cc1ccccc1)C(=O)O)c1ccccc1[N+](=O)[O-] (stereo not given in full)
41	O=C(CCc1cccnc1)NC(CCS)C(=O)N[C@H](Cc1ccccc1)C(=O)O (stereo not given in full)
